Drawing on PMC9177823 (Journal of molecular biology, 2022), this text covers WT for one molecule.

The assay concerns the target MelBSt; Salmonella typhimurium melibiose permease (Salmonella enterica, UniProt P30878). In words: CD thermal denaturation at […] nm, purified in DDM. Particulars: 50 mM melibiose, 100 mM LiCl, 20 mM NaPi pH 7.5, 10% glycerol, 0.01% DDM. Type of assay: binding.

MelBSt; Salmonella typhimurium melibiose permease, sequence (P30878 whole entry): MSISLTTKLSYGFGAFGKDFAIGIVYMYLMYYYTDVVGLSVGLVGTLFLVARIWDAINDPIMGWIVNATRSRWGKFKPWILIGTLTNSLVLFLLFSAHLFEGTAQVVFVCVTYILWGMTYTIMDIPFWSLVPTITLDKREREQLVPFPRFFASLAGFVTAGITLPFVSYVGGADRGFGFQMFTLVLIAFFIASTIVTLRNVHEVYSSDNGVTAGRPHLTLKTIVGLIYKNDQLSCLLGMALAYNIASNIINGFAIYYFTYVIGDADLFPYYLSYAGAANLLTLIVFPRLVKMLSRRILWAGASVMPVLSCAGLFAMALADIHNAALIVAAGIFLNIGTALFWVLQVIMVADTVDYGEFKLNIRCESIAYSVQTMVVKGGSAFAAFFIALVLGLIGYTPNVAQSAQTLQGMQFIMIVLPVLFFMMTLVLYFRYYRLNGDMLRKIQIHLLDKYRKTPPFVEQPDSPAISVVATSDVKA

In turn, `OC[C@H]1O[C@H](OC[C@H]2OC(O)[C@H](O)[C@@H](O)[C@@H]2O)[C@H](O)[C@@H](O)[C@H]1O` (stereo partly shown) [melibiose] registered a WT of 63.87 ± 0.04 °C.
